Experiments:
anti-thrombin III = experiment: fibrinolytic inhibitors: anti-thrombin III titrated by radial immuno-diffusion in standard plasma; type: biochemical; settings: one hour at 37° C.
Procedure: (§1) The main inhibitors of anti-plasminic type, viz. α2 -macroglobulins, α1 -anti-trypsins and anti-thrombin III were titrated according to the radial immuno-diffusion techniques.
(§2) Three concentrations of compound I were incorporated to a pool of standard plasma and incubated for one hour at 37° C. At non-lytic doses by deficiency (suspended standard clots) the compound I gives a decrease of about 10% of α2 -macroglobulins level, a decrease of about 20% of α1 -anti-trypsins level and a decrease of about 10% of anti-thrombin III level.

platelet stickiness = experiment: platelet stickiness, Salzman method, in the rabbit; type: in vivo; settings: 50 mg/kg P.O., 4 hours after administration
Procedure: By using the Salzman method, J. Lab. Clin. Med. 62, 724 (1963), it was observed that the compound I decreases by 20% the platelet stickiness, 4 hours after the administration of 50 mg/kg P.O. of the product in the rabbit.

[1] = toxicity (LD50) in mice, I.V. and P.O.; settings: mouse, in vivo
plasmatic clot = experiment: retraction of plasmatic clot in vitro; type: biochemical; settings: concentrations ≥ 1,79 mg/ml of plasma, 60 minutes
Procedure: The inhibiting action of compound I on the retraction of plasmatic clot was evidenced in vitro. At the concentrations ≥ 1,79 mg/ml of plasma, the compound I inhibits totally (100%) the normal retraction of the clot measured for a lapse of 60 minutes.

erythrocytes from rabbit = experiment: aggregation of erythrocytes induced by Dextran, in vitro, rabbit erythrocytes; type: cell-based; settings: at 0.001 and 0.002 molar
From the text: (§3) The inhibiting action of compound I on the aggregation of erythrocytes induced by Dextran was evidenced in vitro on erythrocytes from human, dog and rabbit, according to the method of Von Kaulla K.N., ArzneimittelForschung, Drug Research 25 (2) 152-155 (1975).

fibrinogen = fibrinogen level in standard plasma incubated with compound I; type: biochemical; settings: non-lytic doses by excess (high concentrations)
erythrocytes from dog = experiment: aggregation of erythrocytes induced by Dextran, in vitro, dog erythrocytes; type: cell-based; settings: at 0.001 and 0.002 molar
From the text: as §3

monomers of fibrin = experiment: level of monomers of fibrin in the rabbit after I.V. administration; type: in vivo; settings: 5 mg/kg I.V.
From the text: This decrease reaches 23%, ten minutes after the injection.

fibrinolytic activity = fibrinolytic activity in male rats after P.O. administration; type: in vivo; settings: 25 mg/kg P.O.
Procedure: The fibrinolytic activity was determined on a batch of 7 male rats after administration of 25 mg/kg P.O. of compound I. It was observed that the fibrinolytic activity increases respectively of 14 and 11%, 60 and 90 minutes after the administration of the product. The return to basis values takes place 3 hours after this administration.

erythrocytes from human = experiment: aggregation of erythrocytes induced by Dextran, in vitro, human erythrocytes; type: cell-based; settings: at 0.001 and 0.002 molar
From the text: as §3

α1 -anti-trypsins = experiment: fibrinolytic inhibitors: α1-anti-trypsins titrated by radial immuno-diffusion in standard plasma; type: biochemical; settings: one hour at 37° C.
Procedure: as §1, §2

α2 -macroglobulins = experiment: fibrinolytic inhibitors: α2-macroglobulins titrated by radial immuno-diffusion in standard plasma; type: biochemical; settings: one hour at 37° C.
Procedure: as §1, §2

For `CCCCCc1cc(O)c(C(=O)O)c(O)c1` [compound I, 4-n-pentyl-6-hydroxy salicylic acid], the “decrease of anti-thrombin III level” value (anti-thrombin III; lytic doses) was 50%, the “decrease of anti-thrombin III level” value (anti-thrombin III; non-lytic doses by deficiency) was “about 10%” and the “decrease of platelet stickiness” value (platelet stickiness) was 20%. The LD50 ([1]; iv, I.V.) was 50 to 100 mg/kg, the LD50 ([1]; po, P.O.) was 1000 to 1500 mg/kg and the “inhibition of the normal retraction of the clot” value (plasmatic clot) was 100%. The “inhibition of the aggregation of erythrocytes induced by Dextran” value (from here on “inhibition of the aggregation … by Dextran”) (erythrocytes from rabbit) was 100%, the fibrinogen level (fibrinogen) was “important decrease” and the “inhibition of the aggregation … by Dextran” value (erythrocytes from dog) was 100%. For the same compound, the “decrease of the level of monomers of fibrin” value (monomers of fibrin; ten minutes after injection) was 23%, the “decrease of the level of monomers of fibrin” value (monomers of fibrin; two minutes after injection) was 10% and the “return of fibrinolytic activity to basis values, time after administration” value (fibrinolytic activity) was 3 h. For the same compound, the “increase of fibrinolytic activity” value (fibrinolytic activity; 60 minutes after administration) was 14%, the “increase of fibrinolytic activity” value (fibrinolytic activity; 90 minutes after administration) was 11% and the “inhibition of the aggregation … by Dextran” value (erythrocytes from human) was 100%. For the same compound, the “decrease of α1 anti-trypsins level” value (α1 -anti-trypsins; lytic doses) was 80%, the “decrease of α1 -anti-trypsins level” value (α1 -anti-trypsins; non-lytic doses by deficiency) was “about 20%” and the “decrease of α2 -macroglobulins level” value (α2 -macroglobulins; lytic doses) was “about 20%”. The “decrease of α2 -macroglobulins level” value (α2 -macroglobulins; non-lytic doses by deficiency) was “about 10%”.
